Patent US20090029932A1, “Identification and use of miRNAs for differentiating myeloid leukemia cells” (Centre National De La Recherche Scientifique (CNRS), priority 2004, published 2009)

Key:
NB4-LR2 cell line = conditions: truncated PML-RARa; cited from earlier work
NB4 cell line = assay: Granulocytic differentiation, NBT reduction test, NB4 cells; assay type: cell-based, human; conditions: for percentage of cells differentiated during the treatment: 100 μM 8-CPT-cAMP where added, NBT positive cells
Procedure: (§1) The cells from cell line NB4 and cell line NB4-LR1, resistant at maturation only by ATRA, were grown as described in LANOTTE et al. (1991, previously cited) and in RUCHAUD et al. (Proc. Natl. Acad. Sci., vol. 91, p: 8428-8432, 1994). The cells were then treated for 4 days in the presence of 1 μM of all-trans retinoic acid (ATRA, SIGMA-ALRICH) alone or with the addition of 100 μM of an cAMP analogue (8-CPT-cAMP, SIGMA-ALRICH). The cell proliferation was determined on a daily basis by counting the cells using a cell counter (BECKMAN COULTER FRANCE SA) from day 0, following the addition of the therapeutic agent, to day 4.
(§2) In parallel, the evolution of the differentiation was determined on a daily basis throughout the treatment. The granulocytic differentiation was simultaneously evaluated according to the morphological and biochemical criteria. The morphological analysis was carried out after May-Grünwald colouring. The biochemical analysis was carried out by a coloration test based on the reduction of NBT (nitro blue tetrazolium) that is used to measure the oxidative ability of the mature cells to reduce the NBT colorant. For this purpose, 0.5 to 1×10^5 cells were centrifuged for 5 minutes at 190 g. The cell sediment was then recovered in 200 μl of saline phosphate buffer (PBS) with the addition of NBT (SIGMA ALDRICH, 1 mg/ml) and PMA (Phorbol 12-myristate 13-acetate, SIGMA, 10^−7M) and then was incubated for 20 minutes at 37° C. The cells were then collected on slides by Cytospin® centrifugation, then observed by phase contrast microscopy. A minimum of 200 cells per slide were examined under light microscope and a differentiation percentage was calculated on the basis of the number of positive NBT cells.

miR23a in NB4-LR2 cells = assay: Northern blot of miR23a expression in NB4-LR2 cells; assay type: cell-based, human; conditions: ATRA
miRNAs in NB4-LR1 cells = assay: Northern blot of miRNA expression in NB4-LR1 cells; assay type: cell-based, human; conditions: NB4-LR1 compared with NB4; ATRA
Procedure: (§3) The total RNA was extracted from the cells of the NB4 cell lines treated or not treated with 1 μM of ATRA, at the same time intervals as in example 1, and using the Tri-Reagent® kit (SIGMA) according to the manufacturer's instructions. The analysis of the low molecular weight RNA by northern blot was carried out as described in LLAVE et al. (2002, previously cited). All of the northern blot experiments were carried out in double. DNA oligonucleotides complementary to the sequences of the miRNAs analysed were labelled at their end with ATP γ-P^32 using the polynucleotide kinase T4 (NEW ENGLAND BIOLABS) by following the manufacturer's instructions.
To formally establish the correlation between the expression of the different miRNAs identified and the differentiation in granulocytes, cells from NB4 and NB4-LR1 cell lines were cultivated in the presence or absence of ATRA as described in example 1. Northern blot experiments were carried out according to the protocol described in example 2. The different northern blot experiments were carried out with probes complementary to the miRNAs miR-23a, miR-17, miR-18, miR-19a, miR-19b, miR-20, miR-23 and miR-92. […]

NB4-LR1 cell line = assay: Granulocytic differentiation, NBT reduction test, NB4-LR1 cells; assay type: cell-based, human; conditions: for percentage of cells differentiated during the treatment: 100 μM 8-CPT-cAMP where added, NBT positive cells
Procedure: as §1, §2

miRNAs in NB4 cells = assay: Northern blot of miRNA expression in NB4 cells; assay type: cell-based, human; conditions: 1 μM ATRA
Procedure: as §3
The quantity of RNA in each well was controlled by coloration of the gel with ethidium bromide and visualisation of the ribosomal RNA (rRNA) under UV light. […] In addition, the miRNAs that seem to belong to a same precursor effectively present a similar expression profile over time.
To formally establish the correlation between the expression of the different miRNAs identified and the differentiation in granulocytes, cells from NB4 and NB4-LR1 cell lines were cultivated in the presence or absence of ATRA as described in example 1. Northern blot experiments were carried out according to the protocol described in example 2. The different northern blot experiments were carried out with probes complementary to the miRNAs miR-23a, miR-17, miR-18, miR-19a, miR-19b, miR-20, miR-23 and miR-92.
To confirm the correlation between the expression of different miRNAs, and in particular miR-17, miR-18, miR-19a, miR19b, miR-20 and miR-92 and the differentiation in granulocytes, cells from NB4 and NB4-LR1 cell lines were cultivated in the presence or absence of ATRA/cAMP as described in example 1. Following an ATRA/cAMP co-treatment, the differentiation of the cells in the NB4-LR1 cell line in granulocytes is restored. Northern blot experiments were carried out according to the protocol described in example 2. […]

## CC1=C(/C=C/C(C)=C/C=C/C(C)=C/C(=O)O)C(C)(C)CCC1 [ATRA, all-trans retinoic acid]
NB4-LR2 cell line
  sensitivity of the cells to induced differentiation: insensitive
NB4 cell line
  differentiation of the cells (in words): differentiate
NB4 cell line; day 0, 1 μM ATRA
  percentage of cells differentiated during the treatment: 0%
NB4 cell line; day 1, 1 μM ATRA
  percentage of cells differentiated during the treatment: 6%
NB4 cell line; day 2, 1 μM ATRA
  percentage of cells differentiated during the treatment: 20%
NB4 cell line; day 3, 1 μM ATRA
  percentage of cells differentiated during the treatment: 43%
NB4 cell line; day 4, 1 μM ATRA
  percentage of cells differentiated during the treatment: 95%
miR23a in NB4-LR2 cells
  expression of miR23a: an increase in the expression of miR23a is not observed
miRNAs in NB4-LR1 cells
  expression profile of miR-17, miR-18, miR-19a, miR19b, miR-20 and miR-92: different expression profile between the NB4 and NB4-LR1 cells
NB4-LR1 cell line
  differentiation of the cells (in words): only the cells in the NB4 cell line differentiate
NB4-LR1 cell line; day 0, 1 μM ATRA
  percentage of cells differentiated during the treatment: 0%
NB4-LR1 cell line; day 1, 1 μM ATRA
  percentage of cells differentiated during the treatment: 0%
NB4-LR1 cell line; day 2, 1 μM ATRA
  percentage of cells differentiated during the treatment: 2%
NB4-LR1 cell line; day 3, 1 μM ATRA
  percentage of cells differentiated during the treatment: 5%
NB4-LR1 cell line; day 4, 1 μM ATRA
  percentage of cells differentiated during the treatment: 5%
miRNAs in NB4 cells; 0 to 4 days
  expression profile of miR-19b and miR-92, time of maximum: maximum of expression on day three of treatment
  level of expression of miR-23a: increases over time
miRNAs in NB4 cells; against non treated cells
  level of expression of miR-19b and miR-92 on day 4 of treatment: lower than their level of expression in the non treated cells
